Source: patent US12240860B2, “Heterobicyclic carboxylic acids and salts thereof” (SHENZHEN IONOVA LIFE SCIENCE CO., LTD., priority 2018, dated 2025)

Assay: DVS (Dynamic Vapor Sorption) moisture sorption/desorption
Type: physicochemical
Conditions: 25° C.
Description: DVS (Dynamic Vapor Sorption)
Around 20 mg of samples were used to test its moisture sorption/desorption profiles at 25° C. under 0%˜95%˜0% relative humidity (RH) cycle with the following parameters:
Equilibrium: dm/dt: 0.01%/min.
RH (%) measurement step scope: 0%95%0%; RH (%) measurement step: 5%

Cc1sc2ccn(Cc3ccc(C(F)(F)F)cc3)c2c1C(=O)NC1(c2ccc(C(=O)O)cc2)CC1 [C003 free acid, 4-(1-{[2-Methyl-4-(4-trifluoromethyl-benzyl)-4H-thieno[3,2-b]pyrrole-3-carbonyl]-amino}-cyclopropyl)-benzoic acid]
moisture at 80% RH (DVS): 3.175%
Hygroscopicity Classification (DVS) (80% RH): hygroscopic
